According to patent US11312726B2, “Thienodiazepine derivatives and application thereof” (priority 2017, dated 2022):
Like-named read-outs stand apart in the source and are kept apart here.

Assays:
[1] = tested on: Human breast cancer MDA-MB-231_luc cell subcutaneous xenograft tumor; assay: In vivo pharmacodynamics, MDA-MB-231_luc subcutaneous xenograft tumor model; conditions: 50 mg/kg PO BID × 21 days
Experimental: In Vivo Pharmacodynamics Study of Compound 32 on Human Breast Cancer MDA-MB-231_luc Cell Subcutaneous Xenograft Tumor Model
Strain: BALB/c nude mouse
Week-age and weight: 6-8 weeks of age, 18-22 grams of body weight
Supplier: Shanghai Sippr-BK laboratory animal Co. Ltd.
3. Experiment Methods and Steps
Human breast cancer MDA-MB-231_luc cells were cultured in monolayer in vitro and the culture conditions were RPMI-1640 culture medium (supplier: Gibco; article number: 22400-089; manufacturing batch number: 4868546) with 10% fetal bovine serum, 100 U/ml penicillin and 100 μg/ml streptomycin. The culture was performed at 37° C. in 5% CO2. Conventional digestion treatment with pancreatin-EDTA for passage was carried out twice a week. When the cells were in the exponential growth phase, the cells were harvested, counted, and inoculated.
3.2 Tumor Cell Inoculation
0.2 mL of 10×10^6 MDA-MB-231_luc cells were subcutaneously inoculated into the right-back of each nude mouse (PBS:Matrigel=1:1). The grouping and administration was started when the average tumor volume reached 100-150 mm^3.
3.3 Tumor Measurement and Experiment Indices
The experiment index was to investigate whether tumor growth was inhibited, delayed or cured. Tumor diameter was measured twice a week with vernier calipers. The equation for calculating the tumor volume was V=0.5×a×b^2, wherein a and b represented the major and minor diameters of the tumor, respectively.
The tumor inhibition effect of the compound was evaluated by TGI (%) or relative tumor proliferation rate T/C (%). TGI (%) reflected the tumor growth inhibition rate.
Relative tumor proliferation rate T/C (%) was calculated according to the below equation: T/C %=TRTV/CRTV×100% (TRTV: RTV of the treatment group; CRTV: RTV of the negative control group). The relative tumor volume (RTV) was calculated according to the results of the tumor measurement. The calculation equation was RTV=Vt/V0, where V0 was the average tumor volume measured at the grouping and administration (i.e. d0), and Vt was the average tumor volume at the time of a certain measurement. TRTV and CRTV were obtained from the data on the same day.
At the end of the experiment, the tumor weight would be measured and the Tweight/Cweight percentage would be calculated. Tweight and Cweight represented the tumor weights of the administration group and the medium control group, respectively.
Statistical analysis included mean value and standard error (SEM) of the tumor volume of each group at each time point. […] The comparison between two groups was analyzed by T-test, and the comparison between three or more groups was analyzed by one-way ANOVA.

[2] = In vivo pharmacokinetics test in mice; conditions: female Balb/c mice; for AUC(0-inf): read-out: Curve area (0-inf) AUC0-inf; for AUC(0-t): read-out: Curve area (0-t) AUC0-last; for half-life: read-out: Half life T1/2 (converted)
Experimental: In Vivo Pharmacokinetics Test of Compound 32 in Mice
Female Balb/c mice were used as test animals. The compound 32 was administrated intravenously and intragastrically to mice, then the drug concentrations in the plasma at different time points were determined by the LC/MS/MS method. The in vivo pharmacokinetic behavior of compound 32 in mice was studied, and its pharmacokinetic characteristics were evaluated.
1.1 Experiment drug: Compound 32
1.2 Experiment animals: Sixteen healthy adult female Balb/c mice were divided into four groups according to the principle of similar body weight, with four mice in each group. The animals were purchased from Shanghai Lingchang BioTech Co., Ltd. of Shanghai SLAC Laboratory Animal Co., Ltd., and the animal production license number was SCXK (Shanghai) 2013-0018.
An appropriate amount of the sample was taken, 5% final volume of DMSO was added, and then 95% final volume of 20% HP-β-CD was added. The mixture was ultrasonically stirred to obtain a 0.5 mg/mL clear solution. After filtration, it was used for the intravenous administration.
An appropriate amount of the sample was taken, and dissolved in a 0.5% sodium carboxymethyl cellulose solution. The mixture was ultrasonically stirred to obtain a 0.5 mg/mL homogeneous suspension, which was used for the intragastric administration.
Eight female Balb/c mice were divided into two groups. After fasting overnight, the first group was administered intravenously with the administration volume of 2.5 mL/kg and the dosage of 1 mg/kg. […]
After the female Balb/c mice were intravenously administrated, 30 μL of blood was taken from different mice at each time point of 0.0833, 0.25, 0.5, 1, 2, 4, 8 and 24 hours, and placed in test tubes containing 2 μL of EDTA-K2; and after the female Balb/c mice were intragastrically administrated, 30 μL of blood was taken at an alternative location at each time point of 0.25, 0.5, 1, 2, 4, 8 and 24 hours, and placed in test tubes containing 2 μL of EDTA-K2. The tube was centrifuged at 3000 g for 15 minutes to separate the plasma, and the separated plasma was stored at −60° C. Animals could take food 2 hours after the administration.
The LC/MS/MS method was used to measure the content of the compound to be tested in the plasma after the intravenous and intragastric administration to the mice. The linear range of the method was 2.00-6000 nmol/L; the plasma samples were analyzed after the protein precipitation by acetonitrile treatment.

[3] = mouse, plasma, po, Intragastric, 3 mg/kg (table; text says 2 mg/kg)
[4] = mouse, plasma, Intravenous, 1 mg/kg

Cc1sc2c(c1C)C(c1ccc(Cl)cc1)=N[C@@H](CC(=O)Nc1ccc3c(c1)COC3=O)c1nnc(C)n1-2 [Compound 32]
change in body weight of the animals [1]: no significant change
tolerance of the animals [1]: well tolerated
relative tumor proliferation rate T/C ([1]; 21st day after administration): 52.99%
tumor growth inhibition rate TGI ([1]; 21st day after administration): 54.85%
absorption (in words) [2]: good absorption
pharmacokinetic clearance (in words) [2]: low pharmacokinetic clearance
AUC(0-inf) [2, 3]: 2.82 µM·h
AUC(0-t) [2, 3]: 2.74 µM·h
half-life [2, 3]: 1.47 h
Tmax ([2]; mouse, plasma, po, Intragastric, 3 mg/kg (table; text says 2 mg/kg), read-out: Time to peak Tmax): 1 h
Vd ([2]; mouse, plasma, Intravenous, 1 mg/kg, read-out: Apparent distribution volume Vdss): 1.19 L/kg
clearance ([2]; mouse, plasma, Intravenous, 1 mg/kg, read-out: Clearance rate Cl): 12.5 mL/min/kg
AUC(0-inf) [2, 4]: 2.5 µM·h
AUC(0-t) [2, 4]: 2.49 µM·h
half-life [2, 4]: 1.09 h
Cmax ([2]; mouse, po, Intragastric, 3 mg/kg (table; text says 2 mg/kg), plasma, read-out: Drug concentration in blood Cmax): 930 nM
